Experimental findings from PMC5531531, “A synthetic cationic antimicrobial peptide inhibits inflammatory response and the NLRP3 inflammasome by neutralizing LPS and ATP” (PLoS ONE, 2017) are described below.

No end group written: not given here.

The assay has as its system LPS-induced NO generation in RAW264.7 cells. As to the kind of experiment: NO inhibitory assay (Griess reaction), LPS-activated RAW 264.7. The assay is classed as cell-based, mouse. The note with it: E. coli LPS 0.1 μg/ml, 24 h, Griess reaction; mean of triplicate wells from at least three experiments. On the procedure: RAW 264.7 cells (2 × 10^5 in 0.5 ml of medium) were seeded in 24-well plates and then incubated with or without LPS (0.1 μg/ml) in the absence or presence of AMP for 24 h. The effects of AMP on NO production were measured indirectly by analyzing nitrite levels using the Griess reaction as described in detail previously.

Take GANAAKKLATFAKKIFTAYW [GW-M1]: the “ED50, effective dose of AMPs that inhibits 50% of LPS-induced NO generation in RAW264.7 cells” value turned out to be 4 µM.
Then GAKALTKAATAFTKFYKTIW [GW-A4], with 4 µM; and GLTFLKKILNFAKKIYTAIW [GW-H3], with 4 µM; and GIKIAKKAITIAKKIAKIYW [GW-Q6], with 4 µM.
Then GYKYYNKIYNYLNKYLKYAW [GW-H0], with 5 µM.
For GYNYAKKLANLAKKFANALW [GW-H1] the value was over 8 µM.
GATYAKKIIKTITKIATTAW [GW-A5]: the “ED50, effective dose of AMPs that inhibits 50% of LPS-induced NO generation in RAW264.7 cells” value is over 8 µM.
For GAKYAKYIYNFYKYIAKYIW [GW-A1] the value was over 8 µM; for GANLAKKFYTYINKFINYAW [GW-Q3], 7 µM.
Then “GIGKFLHSAKKWGKAFVGEIMNS [Peptide M2a, Magainin 2a, reference compound]”, with over 8 µM.
“GWGSFFKKAAHVGKHVGKAALTHYL [Ple, Pleurocidin, reference compound]”: the “ED50, effective dose of AMPs that inhibits 50% of LPS-induced NO generation in RAW264.7 cells” value is over 8 µM.
For GANAAKKFATIAKKFINYLW [GW-Q4] the value was over 8 µM.
